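96-well plates; 48 h exposure; 5 concentrations. Endpoints by linear interpolation between flanking doses. Not reached: highest tested concentration assigned. Here, GI50 denotes the concentration required for 50% inhibition of growth. The concentration for full growth arrest is given as TGI.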
Legend:
Assay in all cases: NCI tumour cell line growth inhibition, 48 h
UACC-257 melanoma = test system: UACC-257 melanoma
SF-539 CNS = test system: SF-539 CNS
SF-295 CNS = test system: SF-295 CNS
A549 NSCLC = test system: A549 NSCLC
HCT-116 colon = test system: HCT-116 colon
RXF 393 renal = test system: RXF 393 renal
HL-60(TB) leukemia = test system: HL-60(TB) leukemia
TK-10 renal = test system: TK-10 renal
SK-MEL-5 melanoma = test system: SK-MEL-5 melanoma
HOP-62 NSCLC = test system: HOP-62 NSCLC
NCI-H226 lung = test system: NCI-H226 lung
NCI-H460 lung = test system: NCI-H460 lung
RPMI-8226 leukemia = test system: RPMI-8226 leukemia
MCF7 breast = test system: MCF7 breast
NCI-H23 lung = test system: NCI-H23 lung
UACC-62 melanoma = test system: UACC-62 melanoma
K-562 leukemia = test system: K-562 leukemia
SK-MEL-28 melanoma = test system: SK-MEL-28 melanoma
MOLT-4 leukemia = test system: MOLT-4 leukemia
M14 melanoma = test system: M14 melanoma
IGROV1 ovarian = test system: IGROV1 ovarian
HOP-92 NSCLC = test system: HOP-92 NSCLC
UO-31 renal = test system: UO-31 renal
HS 578T breast = test system: HS 578T breast
SNB-19 CNS = test system: SNB-19 CNS
HCT-15 colon = test system: HCT-15 colon
OVCAR-8 ovarian = test system: OVCAR-8 ovarian
COLO 205 colon = test system: COLO 205 colon
SW-620 colon = test system: SW-620 colon
MDA-MB-231 breast = test system: MDA-MB-231 breast
A498 renal = test system: A498 renal
SNB-75 CNS = test system: SNB-75 CNS
ACHN renal = test system: ACHN renal
DU-145 prostate = test system: DU-145 prostate
OVCAR-3 ovarian = test system: OVCAR-3 ovarian
MDA-N = test system: MDA-N
SN12C renal = test system: SN12C renal
OVCAR-5 ovarian = test system: OVCAR-5 ovarian
786-0 renal = test system: 786-0 renal
SK-OV-3 ovarian = test system: SK-OV-3 ovarian
SF-268 CNS = test system: SF-268 CNS
HT29 colon = test system: HT29 colon
EKVX NSCLC = test system: EKVX NSCLC
MDA-MB-435 = test system: MDA-MB-435
NCI/ADR-RES ovarian = test system: NCI/ADR-RES ovarian
HCC-2998 colon = test system: HCC-2998 colon
BT-549 breast = test system: BT-549 breast
KM12 colon = test system: KM12 colon
U251 CNS = test system: U251 CNS
OVCAR-4 ovarian = test system: OVCAR-4 ovarian
T-47D breast = test system: T-47D breast
SK-MEL-2 melanoma = test system: SK-MEL-2 melanoma
PC-3 prostate = test system: PC-3 prostate
CAKI-1 renal = test system: CAKI-1 renal
LOX IMVI melanoma = test system: LOX IMVI melanoma
CCRF-CEM leukemia = test system: CCRF-CEM leukemia
MALME-3M melanoma = test system: MALME-3M melanoma

COc1ccccc1N1C(=O)CSC1c1c[nH]c2ccccc12 (configuration not stated)
TGI (UACC-257 melanoma): > 100 µM
TGI (SF-539 CNS): > 100 µM
TGI (SF-295 CNS): > 100 µM
TGI (A549 NSCLC): > 100 µM
TGI (HCT-116 colon): > 100 µM
TGI (RXF 393 renal): > 100 µM
TGI (HL-60(TB) leukemia): > 100 µM
TGI (TK-10 renal): > 100 µM
TGI (SK-MEL-5 melanoma): > 100 µM
TGI (HOP-62 NSCLC): > 100 µM
TGI (NCI-H226 lung): > 100 µM
TGI (NCI-H460 lung): > 100 µM
TGI (RPMI-8226 leukemia): > 100 µM
TGI (MCF7 breast): > 100 µM
TGI (NCI-H23 lung): > 100 µM
TGI (UACC-62 melanoma): > 100 µM
TGI (K-562 leukemia): > 100 µM
TGI (SK-MEL-28 melanoma): > 100 µM
TGI (MOLT-4 leukemia): > 100 µM
TGI (M14 melanoma): > 100 µM
TGI (IGROV1 ovarian): > 100 µM
TGI (HOP-92 NSCLC): > 100 µM
TGI (UO-31 renal): > 100 µM
TGI (HS 578T breast): > 100 µM
TGI (SNB-19 CNS): > 100 µM
TGI (HCT-15 colon): > 100 µM
TGI (OVCAR-8 ovarian): > 100 µM
TGI (COLO 205 colon): > 100 µM
TGI (SW-620 colon): > 100 µM
TGI (MDA-MB-231 breast): > 100 µM
TGI (A498 renal): > 100 µM
TGI (SNB-75 CNS): > 100 µM
TGI (ACHN renal): > 100 µM
TGI (DU-145 prostate): > 100 µM
TGI (OVCAR-3 ovarian): > 100 µM
TGI (MDA-N): > 100 µM
TGI (SN12C renal): > 100 µM
TGI (OVCAR-5 ovarian): > 100 µM
TGI (786-0 renal): > 100 µM
TGI (SK-OV-3 ovarian): > 100 µM
TGI (SF-268 CNS): > 100 µM
TGI (HT29 colon): > 100 µM
TGI (EKVX NSCLC): > 100 µM
TGI (MDA-MB-435): > 100 µM
TGI (NCI/ADR-RES ovarian): > 100 µM
TGI (HCC-2998 colon): > 100 µM
TGI (BT-549 breast): > 100 µM
TGI (KM12 colon): > 100 µM
TGI (U251 CNS): > 100 µM
TGI (OVCAR-4 ovarian): > 100 µM
TGI (T-47D breast): > 100 µM
TGI (SK-MEL-2 melanoma): > 100 µM

S=C(S)NCCNC(=S)S.[Cu+2]
GI50 (UACC-257 melanoma): > 100 µM
TGI (UACC-257 melanoma): > 100 µM
GI50 (SF-539 CNS): > 100 µM
TGI (SF-539 CNS): > 100 µM
GI50 (SF-295 CNS): > 100 µM
TGI (SF-295 CNS): > 100 µM
GI50 (A549 NSCLC): 56.6 µM
TGI (A549 NSCLC): > 100 µM
GI50 (HCT-116 colon): > 100 µM
TGI (HCT-116 colon): > 100 µM
GI50 (RXF 393 renal): 36.1 µM
TGI (RXF 393 renal): > 100 µM
GI50 (HL-60(TB) leukemia): > 100 µM
TGI (HL-60(TB) leukemia): > 100 µM
GI50 (TK-10 renal): > 100 µM
TGI (TK-10 renal): > 100 µM
GI50 (SK-MEL-5 melanoma): 25.8 µM
TGI (SK-MEL-5 melanoma): 58.5 µM
GI50 (HOP-62 NSCLC): 68.6 µM
TGI (HOP-62 NSCLC): > 100 µM
GI50 (NCI-H226 lung): > 100 µM
TGI (NCI-H226 lung): > 100 µM
GI50 (NCI-H460 lung): 29.7 µM
TGI (NCI-H460 lung): 89.3 µM
GI50 (RPMI-8226 leukemia): > 100 µM
TGI (RPMI-8226 leukemia): > 100 µM
GI50 (MCF7 breast): 27.4 µM
TGI (MCF7 breast): 78.2 µM
GI50 (NCI-H23 lung): > 100 µM
TGI (NCI-H23 lung): > 100 µM
GI50 (UACC-62 melanoma): 33.9 µM
TGI (UACC-62 melanoma): > 100 µM
GI50 (K-562 leukemia): > 100 µM
TGI (K-562 leukemia): > 100 µM
GI50 (SK-MEL-28 melanoma): > 100 µM
TGI (SK-MEL-28 melanoma): > 100 µM
GI50 (MOLT-4 leukemia): > 100 µM
TGI (MOLT-4 leukemia): > 100 µM
GI50 (PC-3 prostate): > 100 µM
TGI (PC-3 prostate): > 100 µM
GI50 (M14 melanoma): > 100 µM
TGI (M14 melanoma): > 100 µM
GI50 (IGROV1 ovarian): 93.2 µM
TGI (IGROV1 ovarian): > 100 µM
GI50 (HOP-92 NSCLC): > 100 µM
TGI (HOP-92 NSCLC): > 100 µM
GI50 (UO-31 renal): > 100 µM
TGI (UO-31 renal): > 100 µM
GI50 (HS 578T breast): > 100 µM
TGI (HS 578T breast): > 100 µM
GI50 (SNB-19 CNS): > 100 µM
TGI (SNB-19 CNS): > 100 µM
GI50 (HCT-15 colon): 51.6 µM
TGI (HCT-15 colon): > 100 µM
GI50 (OVCAR-8 ovarian): > 100 µM
TGI (OVCAR-8 ovarian): > 100 µM
GI50 (COLO 205 colon): > 100 µM
TGI (COLO 205 colon): > 100 µM
GI50 (SW-620 colon): 88.6 µM
TGI (SW-620 colon): > 100 µM
GI50 (MDA-MB-231 breast): > 100 µM
TGI (MDA-MB-231 breast): > 100 µM
GI50 (A498 renal): 57.6 µM
TGI (A498 renal): > 100 µM
GI50 (SNB-75 CNS): > 100 µM
TGI (SNB-75 CNS): > 100 µM
GI50 (ACHN renal): > 100 µM
TGI (ACHN renal): > 100 µM
GI50 (DU-145 prostate): > 100 µM
TGI (DU-145 prostate): > 100 µM
GI50 (CAKI-1 renal): > 100 µM
TGI (CAKI-1 renal): > 100 µM
GI50 (OVCAR-3 ovarian): > 100 µM
TGI (OVCAR-3 ovarian): > 100 µM
GI50 (MDA-N): 25.7 µM
TGI (MDA-N): 69.5 µM
GI50 (SN12C renal): > 100 µM
TGI (SN12C renal): > 100 µM
GI50 (OVCAR-5 ovarian): 52.4 µM
TGI (OVCAR-5 ovarian): > 100 µM
GI50 (786-0 renal): 63.2 µM
TGI (786-0 renal): > 100 µM
GI50 (SK-OV-3 ovarian): 8.24 µM
TGI (SK-OV-3 ovarian): 23.1 µM
GI50 (SF-268 CNS): > 100 µM
TGI (SF-268 CNS): > 100 µM
GI50 (LOX IMVI melanoma): 31.8 µM
TGI (LOX IMVI melanoma): > 100 µM
GI50 (HT29 colon): > 100 µM
TGI (HT29 colon): > 100 µM
GI50 (EKVX NSCLC): 70.1 µM
TGI (EKVX NSCLC): > 100 µM
GI50 (MDA-MB-435): 29.7 µM
TGI (MDA-MB-435): 79.2 µM
GI50 (NCI/ADR-RES ovarian): > 100 µM
TGI (NCI/ADR-RES ovarian): > 100 µM
GI50 (CCRF-CEM leukemia): > 100 µM
TGI (CCRF-CEM leukemia): > 100 µM
GI50 (HCC-2998 colon): 59.3 µM
TGI (HCC-2998 colon): > 100 µM
GI50 (KM12 colon): > 100 µM
TGI (KM12 colon): > 100 µM
GI50 (U251 CNS): > 100 µM
TGI (U251 CNS): > 100 µM
GI50 (OVCAR-4 ovarian): 36.1 µM
TGI (OVCAR-4 ovarian): > 100 µM
GI50 (T-47D breast): > 100 µM
TGI (T-47D breast): > 100 µM
GI50 (MALME-3M melanoma): > 100 µM
TGI (MALME-3M melanoma): > 100 µM
